Data published in patent US20240351996A1, “CDK19-SELECTIVE INHIBITORS, AND METHODS OF USE THEREOF” (CZ BIOHUB SF, LLC, priority 2022, published 2024).

How the values were obtained:
CDK19/CycC = CDK19/CycC (Homo sapiens, UniProt Q9BWU1); assay: LanthaScreen europium kinase binding assay (FRET displacement), CDK19; settings: for CDK19 Selectivity: CDK19/CDK8 selectivity based on IC50 values; for IC50: his-tagged CDK19/CycC 5 nM, tracer 10 nM, 3 h incubation
Description: (§1) FRET Displacement Assay to Measure IC50: The CDK19/CDK8 IC50 values were measured to evaluate activity and to determine CDK19/CDK8 selectivity. The IC50 values of the disclosed compounds was measured using a LanthaScreen™ europium kinase binding assay (ThermoFisher), as described herein.
To a kinase buffer cocktail solution (i.e., 5× Kinase Buffer A) was added: purified recombinant his-tagged CDK19/CycC protein (5 nM), ATP-competitive kinase inhibitor scaffold kinase tracer Alexa Fluor® 665 (10 nM), biotin anti-his tag antibody (2 nM), LanthaScreen® europium-streptavidin (2 nM). An aliquot of the cocktail solution (10 μL) was added to each well of a LUMITRAC™ 200:384 flat bottom, non-treated microtiter white plate. The plate was then covered to protect light sensitive reagents and incubated for 30 min at room temperature to equilibrate before addition of any inhibitors.
(§2) A serial dilution of the compounds was titrated into each well using an automated liquid handling Staccato integrated system at the following concentration(s) (Log10 Molar [C]): −4.5, −5.0, −5.5, −6.0, −6.5, −7.0, −7.5, −8.0 so that a complete dose-response could be calculated. A Tecan microplate reader infinite m200 instrument was then used to measure the FRET signal of each individual well using an excitation of 317/20 nm, emission europium of 620/12 nm, and emission kinase tracer of 665/12 nm after a 3 h incubation period at room temperature until steady-state kinetics were achieved.
(§3) Results were performed in duplicate and were repeated a total of 3 independent times before data was normalized to the DMSO control group and IC50 values reported.

CDK8 = CDK8 (Homo sapiens, UniProt P49336); assay: LanthaScreen europium kinase binding assay (FRET displacement), CDK8
Description: as §1
[…] An aliquot of the cocktail solution (10 μL) was added to each well of a LUMITRAC™ 200:384 flat bottom, non-treated microtiter white plate. The plate was then covered to protect light sensitive reagents and incubated for 30 min at room temperature to equilibrate before addition of any inhibitors.
as §2, §3

Sequence of CDK8 (P49336 whole entry): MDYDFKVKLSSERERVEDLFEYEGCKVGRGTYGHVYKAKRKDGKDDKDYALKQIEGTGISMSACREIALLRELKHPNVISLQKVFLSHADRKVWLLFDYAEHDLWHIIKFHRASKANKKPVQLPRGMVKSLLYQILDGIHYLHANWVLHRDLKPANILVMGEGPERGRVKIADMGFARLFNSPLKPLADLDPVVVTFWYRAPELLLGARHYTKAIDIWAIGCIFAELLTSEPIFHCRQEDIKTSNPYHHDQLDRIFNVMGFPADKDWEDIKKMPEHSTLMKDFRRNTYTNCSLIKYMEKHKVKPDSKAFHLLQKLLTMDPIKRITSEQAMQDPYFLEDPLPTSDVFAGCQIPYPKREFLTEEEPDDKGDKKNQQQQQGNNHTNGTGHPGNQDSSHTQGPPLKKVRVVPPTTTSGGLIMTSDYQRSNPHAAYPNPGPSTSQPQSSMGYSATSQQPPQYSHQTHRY
Sequence of CDK8 (P24863 whole entry partner): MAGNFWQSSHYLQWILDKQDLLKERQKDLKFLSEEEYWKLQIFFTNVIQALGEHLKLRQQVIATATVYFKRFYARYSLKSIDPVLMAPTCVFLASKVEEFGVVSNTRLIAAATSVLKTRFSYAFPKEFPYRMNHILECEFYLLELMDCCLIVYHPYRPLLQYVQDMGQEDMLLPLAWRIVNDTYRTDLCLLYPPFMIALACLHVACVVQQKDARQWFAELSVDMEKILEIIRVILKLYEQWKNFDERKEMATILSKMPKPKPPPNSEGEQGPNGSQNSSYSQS
Sequence of CDK19/CycC (Q9BWU1 whole entry): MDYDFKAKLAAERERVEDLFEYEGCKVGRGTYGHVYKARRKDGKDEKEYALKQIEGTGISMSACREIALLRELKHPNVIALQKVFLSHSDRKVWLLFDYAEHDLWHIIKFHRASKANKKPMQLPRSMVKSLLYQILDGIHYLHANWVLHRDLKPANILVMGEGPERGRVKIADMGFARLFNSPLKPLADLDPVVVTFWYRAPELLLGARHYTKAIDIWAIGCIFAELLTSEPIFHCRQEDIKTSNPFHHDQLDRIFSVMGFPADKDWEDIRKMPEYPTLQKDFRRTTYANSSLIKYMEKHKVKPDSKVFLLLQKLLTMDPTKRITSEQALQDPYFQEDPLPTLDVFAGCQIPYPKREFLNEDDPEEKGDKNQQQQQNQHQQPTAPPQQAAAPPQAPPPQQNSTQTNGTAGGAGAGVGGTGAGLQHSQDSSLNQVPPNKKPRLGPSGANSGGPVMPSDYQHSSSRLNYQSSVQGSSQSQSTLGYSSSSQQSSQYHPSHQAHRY
Sequence of CDK19/CycC (P24863 whole entry partner): as the sequence (P24863 whole entry partner) above

| Structure (SMILES) | CDK19 Selectivity (CDK19/CycC) | IC50 (CDK19/CycC) [nM] | IC50 (CDK8) [nM] |
| --- | --- | --- | --- |
| CC(C)Cc1ccc(Nc2ncc(-c3cccnc3)cn2)cc1 [Compound A87] | 2.4 | 84 | 198 |
| Cc1cc(C)cc(-c2cnc(Nc3ccc(CC(C)C)cc3)nc2)c1 [Compound A88] | 2.7 | 557 | 1490 |
| CC(C)Cc1ccc(Nc2ncc(-c3ccc(C#N)cc3)cn2)cc1 [Compound A89] |  | 10000 | 10000 |
| Cc1cc(C#N)ccc1-c1cnc(Nc2ccc(CC(C)C)cc2)nc1 [Compound A90] | 4.6 | 1060 | 4860 |
| Cc1cc(-c2cnc(Nc3ccc(CC(C)C)cc3)nc2)ccc1C#N [Compound A91] | 12 | 798 | 10000 |
| CC(C)Cc1ccc(Nc2ncc(-c3cccc(C#N)c3)cn2)cc1 [Compound A92] | 3 | 335 | 1020 |
| Cc1ccc(C#N)cc1-c1cnc(Nc2ccc(CC(C)C)cc2)nc1 [Compound A93] | 2 | 132 | 276 |
| Cc1cc(C#N)cc(-c2cnc(Nc3ccc(CC(C)C)cc3)nc2)c1 [Compound A94] | 2 | 438 | 869 |
| CC(C)Cc1ccc(Nc2ncc(-c3ccc(C#N)cn3)cn2)cc1 [Compound A95] |  | 10000 | 10000 |
| CC(C)Cc1ccc(Nc2ncc(-c3cc(C#N)ccn3)cn2)cc1 [Compound A96] | 9 | 1110 | 10000 |
| CC(C)Cc1ccc(Nc2ncc(-c3ccncc3)cn2)cc1 [Compound A99] | 5.6 | 1800 | 10000 |
| CC(C)Cc1ccc(Nc2ncc(-c3ccc(=O)[nH]c3)cn2)cc1 [Compound A100] | 5.1 | 283 | 1430 |
| Cc1cc(-c2cnc(Nc3ccc(CC(C)C)cc3)nc2)cc(C)n1 [Compound A101, 5-(2,6-dimethylpyridin-4-yl)-N-(4-isobutylphenyl)pyrimidin-2-amine] | 4.7 | 822 | 3840 |
| CC(C)Cc1ccc(Nc2ncc(-c3ccccc3)cn2)cc1 [Compound A102] | 1 | 10000 | 10000 |
| Cc1ccc(-c2cnc(Nc3ccc(CC(C)C)cc3)nc2)cc1 [Compound A103] | 1.3 | 7680 | 10000 |
| CC(C)Cc1ccc(Nc2ncc(C(=O)c3ccncc3F)cn2)cc1 [Compound A116] | 1.9 | ≤ 2.5 | 4.1 |
| Cc1cncc(F)c1C(=O)c1cnc(Nc2ccc(CC(C)C)cc2)nc1 [Compound A117] | 1.5 | 6490 | 10000 |
| CC(C)Cc1ccc(Nc2ncc(C(=O)c3ccncc3Cl)cn2)cc1 [Compound A118] | 1.8 | 3.7 | 6.6 |
| CC(C)Cc1ccc(Nc2ccc(C(=O)c3ccncc3F)cn2)cc1 [Compound A122] | 5 | 31 | 160 |
| CC(C)Cc1ccc(Nc2ccc(C(=O)c3ccncc3Cl)cn2)cc1 [Compound A123] | 5 | 41 | 201 |
| Cc1cc(CC(C)C)ccc1Nc1ncc(C(=O)c2ccncc2)cn1 [Compound A128] | 3.8 | 8.9 | 34 |
| CC(C)Cc1ccc(Nc2ncc(C(=O)c3ccncc3)cn2)c(F)c1 [Compound A129] | 2.4 | ≤ 2.5 | 3.5 |

| Structure (SMILES) | CDK19 Selectivity (CDK19/CycC) | IC50 (CDK19/CycC) [nM] | IC50 (CDK8) [nM] |
| --- | --- | --- | --- |
| COc1cc(CC(C)C)ccc1Nc1ncc(C(=O)c2ccncc2)cn1 [Compound A131] | 1.8 | 5.7 | 10 |
| CC(C)Cc1ccc(Nc2ncc(C(=O)c3cccnc3)cn2)cc1 [Compound A133] | 3 | 265 | 797 |
| CC(C)Cc1ccc(Nc2ncc(Cc3ccncc3)cn2)cc1 [Compound A138] | 4.8 | 5 | 24 |
| CC(C)Cc1ccc(Nc2ncc(C(F)(F)c3ccncc3)cn2)cc1 [Compound A139] | 3.2 | 5.5 | 18 |
| CC(C)Cc1ccc(Nc2ncc(-c3cc[nH]c(=O)c3)cn2)cc1 [Compound A141] | 1 | 10000 | 10000 |
| Fc1ccc(Nc2ncc(Oc3ccncc3)cn2)cc1 [Compound A142] | 1 | 10000 | 10000 |
| CC(C)Cc1ccc(Nc2ncc(Oc3ccncc3)cn2)cc1 [Compound A143] | 3 | 3000 | 10000 |
| FC(F)(F)Oc1ccc(Nc2ncc(Nc3ccncc3)cn2)cc1 [Compound A145] | 2 | 36 | 72 |
| CC(C)Cc1ccc(Nc2ncc(Nc3ccncc3C(=O)NC3CCCC3)cn2)cc1 [Compound A146] | 1 | 219 | 178 |
| Cc1cnccc1Nc1cnc(Nc2ccc(C3CCC3)cc2)nc1 [Compound A147] | 1 | 13 | 15 |
| Cc1cnccc1Nc1cnc(Nc2ccc(C3CCCCC3)cc2)nc1 [Compound A148] | 1 | 18 | 17 |
| CC(C)Cc1ccc(Nc2ncc(Nc3ccncc3C#N)cn2)cc1 [Compound A149] |  | ≤ 2.5 | 3 |
| Cc1cnc(F)cc1Nc1cnc(Nc2ccc(CC(C)C)cc2)nc1 [Compound A150] | 2 | 23 | 50 |
| CC(C)Cc1ccc(Nc2ncc(S(=O)(=O)c3ccncc3)cn2)cc1 [Compound A152] |  | 1060 | 4630 |
| CC(C)Cc1ccc(Nc2ncc(Nc3ccc4c(c3)CNC4=O)cn2)cc1 [Compound A153] |  | 266 | 605 |
| CC(C)Cc1ccc(Nc2ncc(Nc3ccncc3C(F)(F)F)cn2)cc1 [Compound A154] | 1 | 3 | 3 |
| CC(C)Cc1ccc(Nc2ncc(-c3cccc(-c4ccncc4)c3)cn2)cc1 [Compound A155] | 3 | 6 | 19 |
| CC(C)Cc1ccc(Nc2ncc(Nc3ccncc3C#Cc3ccccc3)cn2)cc1 [Compound A156] | 5 | 54 | 248 |
| CC(C)Cc1ccc(Nc2ncc(Nc3ccncc3OC3CCCC3(C)C)cn2)cc1 (stereo not drawn) [Compound A157] | 1 | 67 | 64 |
| CC(C)Cc1ccc(Nc2ncc(Nc3ccncc3-c3cnn(C4CC4)c3)cn2)cc1 [Compound A158] |  | 24 | 16 |
| CC(C)Cc1ccc(Nc2ncc(Nc3ccnc(N)c3)cn2)cc1 [Compound A159] | 3 | 18 | 54 |
